Substitutions are numbered along the chain they refer to.
Tests used:
Assay type in all cases: functional, cell-based
[1] = biological target: T1, Muscarinic acetylcholine receptor M5 (Homo sapiens) (UniProt P08912); assay: Percent increase in Arachidonic acid (AA) release using CHO cells, stably transfected with human muscarinic m5 acetylcholine receptor (AChR)
T1 sequence (whole entry): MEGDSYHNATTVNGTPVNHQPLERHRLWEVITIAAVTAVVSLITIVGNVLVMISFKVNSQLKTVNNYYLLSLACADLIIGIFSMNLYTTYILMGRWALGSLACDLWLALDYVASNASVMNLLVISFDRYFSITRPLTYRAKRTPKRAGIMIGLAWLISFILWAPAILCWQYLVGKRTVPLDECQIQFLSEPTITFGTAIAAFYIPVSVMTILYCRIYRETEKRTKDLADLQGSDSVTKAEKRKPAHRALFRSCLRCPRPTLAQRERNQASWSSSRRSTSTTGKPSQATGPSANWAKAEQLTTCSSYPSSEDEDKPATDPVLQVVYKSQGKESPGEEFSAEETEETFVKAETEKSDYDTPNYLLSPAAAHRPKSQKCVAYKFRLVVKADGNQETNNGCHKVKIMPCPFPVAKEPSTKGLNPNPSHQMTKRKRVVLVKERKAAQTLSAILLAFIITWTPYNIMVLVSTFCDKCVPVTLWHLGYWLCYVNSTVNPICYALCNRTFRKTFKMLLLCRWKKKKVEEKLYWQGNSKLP

[2] = biological target: Muscarinic acetylcholine receptor M3 (Homo sapiens) (UniProt P20309); assay: Percent increase in forskolin-stimulated cAMP accumulation using CHO cells, stably transfected with human muscarinic m3 acetylcholine receptor (AChR)
[3] = biological target: Muscarinic acetylcholine receptor M3 (Homo sapiens) (UniProt P20309); assay: Percent increase in Arachidonic acid (AA) release using CHO cells, stably transfected with human muscarinic m3 acetylcholine receptor (AChR)
[4] = biological target: T2, Muscarinic acetylcholine receptor M1 (Homo sapiens) (UniProt P11229); assay: Percent increase in phosphoinositides (PI) hydrolysis using chinese hamster ovary (CHO) cells, stably transfected with human muscarinic m1 acetylcholine receptor (AChR)
T2 sequence (whole entry): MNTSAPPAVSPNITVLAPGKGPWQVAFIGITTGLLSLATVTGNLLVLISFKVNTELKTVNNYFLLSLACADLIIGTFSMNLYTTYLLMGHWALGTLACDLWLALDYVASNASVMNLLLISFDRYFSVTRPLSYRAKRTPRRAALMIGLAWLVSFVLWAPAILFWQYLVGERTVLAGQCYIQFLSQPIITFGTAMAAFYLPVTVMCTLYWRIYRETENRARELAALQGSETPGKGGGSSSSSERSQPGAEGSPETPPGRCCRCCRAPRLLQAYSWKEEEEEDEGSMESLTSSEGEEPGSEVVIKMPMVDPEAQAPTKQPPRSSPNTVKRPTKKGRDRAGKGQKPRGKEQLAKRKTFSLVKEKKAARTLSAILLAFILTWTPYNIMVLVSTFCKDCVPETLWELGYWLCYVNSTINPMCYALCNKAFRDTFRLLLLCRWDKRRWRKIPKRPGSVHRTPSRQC

[5] = biological target: Muscarinic acetylcholine receptor M3 (Homo sapiens) (UniProt P20309); assay: Percent increase in phosphoinositides (PI) hydrolysis using CHO cells, stably transfected with human muscarinic m3 acetylcholine receptor (AChR)
[6] = biological target: T2, Muscarinic acetylcholine receptor M1 (Homo sapiens); assay: Percent increase in Arachidonic acid (AA) release using CHO cells, transfected with human muscarinic m1 acetylcholine receptor (AChR)
[7] = biological target: T1, Muscarinic acetylcholine receptor M5 (Homo sapiens); assay: Percent increase in phosphoinositides (PI) hydrolysis using CHO cells, stably transfected with human muscarinic m5 acetylcholine receptor (AChR)
[8] = biological target: T3, Muscarinic acetylcholine receptor M2 (Homo sapiens) (UniProt P08172); assay: Percent increase in forskolin-stimulated cAMP accumulation using CHO cells, transfected with human muscarinic m2 acetylcholine receptor (AChR)
T3 sequence (whole entry): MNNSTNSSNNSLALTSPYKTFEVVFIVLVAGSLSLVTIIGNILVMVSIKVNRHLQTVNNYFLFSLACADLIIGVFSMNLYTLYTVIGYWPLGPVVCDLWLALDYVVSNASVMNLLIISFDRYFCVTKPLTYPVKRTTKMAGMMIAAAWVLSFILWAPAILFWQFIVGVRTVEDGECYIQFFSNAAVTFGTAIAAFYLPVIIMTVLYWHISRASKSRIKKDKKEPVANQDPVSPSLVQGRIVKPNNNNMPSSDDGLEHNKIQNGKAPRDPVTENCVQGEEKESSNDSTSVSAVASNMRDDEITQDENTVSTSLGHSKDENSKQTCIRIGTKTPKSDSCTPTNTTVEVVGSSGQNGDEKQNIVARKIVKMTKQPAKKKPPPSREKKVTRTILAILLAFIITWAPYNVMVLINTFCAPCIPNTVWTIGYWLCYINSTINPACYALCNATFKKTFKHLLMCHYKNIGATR

[9] = biological target: T2, Muscarinic acetylcholine receptor M1 (Homo sapiens); assay: Percent increase in forskolin-stimulated cAMP accumulation using CHO cells, stably transfected with human muscarinic m1 acetylcholine receptor (AChR)
[10] = biological target: Muscarinic acetylcholine receptor M3 (Homo sapiens) (UniProt P20309); assay: Percent increase in intracellular calcium ion concentration ([Ca2+]i) using CHO cells, stably transfected with human muscarinic m3 acetylcholine receptor (AChR)
[11] = biological target: T1, Muscarinic acetylcholine receptor M5 (Homo sapiens); assay: Percent increase in intracellular calcium ions concentration ([Ca2+]i) using CHO cells, stably transfected with human muscarinic m5 acetylcholine receptor (AChR)
[12] = biological target: T4, Muscarinic acetylcholine receptor M1 (Rattus norvegicus) (UniProt P08482); assay: Percent increase in Arachidonic acid (AA) release using CHO cells, transfected with rat muscarinic m1 acetylcholine receptor (AChR)
T4 sequence (whole entry): T2 sequence (whole entry) with A5V, T254S, P309S, R320K, A337G, I413V

[13] = biological target: T5, Muscarinic acetylcholine receptor M4 (Homo sapiens) (UniProt P08173); assay: Percent increase in intracellular calcium ion concentration ([Ca2+]i) using CHO cells, stably transfected with human muscarinic m4 acetylcholine receptor (AChR)
T5 sequence (whole entry): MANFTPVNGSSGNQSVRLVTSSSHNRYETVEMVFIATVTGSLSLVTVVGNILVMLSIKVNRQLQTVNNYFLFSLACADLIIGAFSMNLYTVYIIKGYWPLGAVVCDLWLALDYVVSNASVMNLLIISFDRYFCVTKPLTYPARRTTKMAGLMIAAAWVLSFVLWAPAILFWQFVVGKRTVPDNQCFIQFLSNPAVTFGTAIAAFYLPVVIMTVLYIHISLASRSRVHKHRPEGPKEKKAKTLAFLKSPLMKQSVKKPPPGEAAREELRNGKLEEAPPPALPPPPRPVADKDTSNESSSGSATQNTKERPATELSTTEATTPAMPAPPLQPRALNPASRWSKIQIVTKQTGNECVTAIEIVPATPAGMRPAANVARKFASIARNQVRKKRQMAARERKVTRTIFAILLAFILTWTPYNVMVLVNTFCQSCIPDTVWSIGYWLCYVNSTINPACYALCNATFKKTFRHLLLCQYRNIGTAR

[14] = biological target: T3, Muscarinic acetylcholine receptor M2 (Homo sapiens); assay: Percent increase in intracellular calcium ions concentration ([Ca2+]i) using CHO cells, stably transfected with human muscarinic m2 acetylcholine receptor (AChR)
[15] = biological target: Muscarinic acetylcholine receptor M3 (Rattus norvegicus) (UniProt P08483); assay: Percent increase in Arachidonic acid (AA) release using CHO cells, stably transfected with rat muscarinic m3 acetylcholine receptor (AChR)
[16] = biological target: T2, Muscarinic acetylcholine receptor M1 (Homo sapiens); assay: Percent increase in intracellular calcium ions concentration ([Ca2+]i) using CHO cells, stably transfected with human muscarinic m1 acetylcholine receptor (AChR)

Sequence of Muscarinic acetylcholine receptor M3 (Homo sapiens) (P20309 whole entry, looked up): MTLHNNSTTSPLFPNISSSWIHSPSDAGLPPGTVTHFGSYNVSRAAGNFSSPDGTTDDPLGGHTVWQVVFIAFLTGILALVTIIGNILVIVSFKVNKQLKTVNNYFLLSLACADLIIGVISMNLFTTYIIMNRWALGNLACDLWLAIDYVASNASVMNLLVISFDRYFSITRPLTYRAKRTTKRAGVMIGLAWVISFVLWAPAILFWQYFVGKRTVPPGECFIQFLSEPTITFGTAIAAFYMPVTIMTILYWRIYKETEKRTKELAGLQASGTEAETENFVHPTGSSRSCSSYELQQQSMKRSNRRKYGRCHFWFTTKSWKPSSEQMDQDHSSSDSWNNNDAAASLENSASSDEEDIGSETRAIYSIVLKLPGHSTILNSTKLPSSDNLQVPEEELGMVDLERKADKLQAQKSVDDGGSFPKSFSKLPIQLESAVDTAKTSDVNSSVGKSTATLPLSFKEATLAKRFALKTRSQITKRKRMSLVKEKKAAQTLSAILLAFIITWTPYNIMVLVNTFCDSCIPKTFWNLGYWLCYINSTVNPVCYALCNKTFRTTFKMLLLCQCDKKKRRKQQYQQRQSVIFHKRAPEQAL
Sequence of Muscarinic acetylcholine receptor M3 (Rattus norvegicus) (P08483 whole entry, looked up): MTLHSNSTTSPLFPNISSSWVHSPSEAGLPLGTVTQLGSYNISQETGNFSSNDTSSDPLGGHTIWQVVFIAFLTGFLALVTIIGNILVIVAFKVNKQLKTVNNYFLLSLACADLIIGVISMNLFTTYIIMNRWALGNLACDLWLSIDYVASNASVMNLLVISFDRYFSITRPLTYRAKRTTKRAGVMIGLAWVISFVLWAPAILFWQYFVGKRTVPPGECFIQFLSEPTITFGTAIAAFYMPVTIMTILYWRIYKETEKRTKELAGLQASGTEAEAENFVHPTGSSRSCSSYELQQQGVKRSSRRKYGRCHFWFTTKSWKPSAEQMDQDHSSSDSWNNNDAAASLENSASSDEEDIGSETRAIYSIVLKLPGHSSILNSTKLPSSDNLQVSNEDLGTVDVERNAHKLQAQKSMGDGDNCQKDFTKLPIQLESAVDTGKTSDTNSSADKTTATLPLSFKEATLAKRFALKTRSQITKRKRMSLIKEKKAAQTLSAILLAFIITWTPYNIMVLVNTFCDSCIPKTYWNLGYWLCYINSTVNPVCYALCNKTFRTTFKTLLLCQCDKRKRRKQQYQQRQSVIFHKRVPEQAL

Compound: C[N+](C)(C)CC#CCOC(=O)Nc1cccc(Cl)c1
- Increase [1]: 34%
- Increase [2]: 7%
- Increase [3]: 13%
- Increase [4]: 89%
- Increase [5]: 7%
- Increase [6]: 90%
- Increase [7]: 24%
- Increase [8]: 9.5%
- Increase [9]: 7%

Compound: CC1=NC2(CCN(C)CC2)CO1
- Increase [10]: 132%
- Increase [2]: 4%
- Increase [11]: 80%
- Increase [4]: 102%
- Increase [12]: 61%
- Increase [5]: 84%
- Increase [6]: 3%
- Increase [7]: 79%
- Increase [13]: 10%
- Increase [8]: 70%
- Increase [14]: 9%
- Increase [15]: 36%
- Increase [16]: 85%

Compound: C[C@@H]1OC2(CS1)CN1CCC2CC1 (some centres undefined)
- Increase [1]: 4%
- Increase [10]: 86%
- Increase [2]: 0.8%
- Increase [11]: 32%
- Increase [3]: 11%
- Increase [4]: 43%
- Increase [5]: 10%
- Increase [6]: 68%
- Increase [7]: 4%
- Increase [13]: 3%
- Increase [8]: 60%
- Increase [9]: 1%
- Increase [14]: 17%
- Increase [16]: 79%

Compound: CC1=NCC2(CCN(C)CC2)O1
- Increase [10]: 130%
- Increase [2]: 10%
- Increase [11]: 78%
- Increase [4]: 85%
- Increase [12]: 90%
- Increase [5]: 76%
- Increase [7]: 28%
- Increase [13]: 10%
- Increase [8]: 74%
- Increase [9]: 6%
- Increase [14]: 12%
- Increase [15]: 27%
- Increase [16]: 60%
